What was measured:
[1] = Anti-obesity effect: body weight and gain in rabbits on high fat diet; type: in vivo, Japanese white rabbits; conditions: high fat diet restricted to 100 g/day, after 12 weeks
Source text: Japanese white rabbits (Kitayama Labes., Co Ltd.) aged 9 weeks were used in the test. Blood was collected from the auricular artery of animals acclimated to feeding with high fat diet (RC-4 containing 0.3% cholesterol and 3% peanut oil, supplied by Oriental Yeast, Co., Ltd.), and then the animals were grouped into 4 groups containing 12 animals each so that there might be no intergroup difference with respect to body weight and plasma parameters (neutral fat value, total cholesterol value, HDL cholesterol value). Compound (1) was added to the high fat diet so that the intake of Compound (1) might be 3, 10, and 30 mg/kg/100 g diet/day. The animals were given the diet restricted to 100 g diet/day for 12 weeks, and body weight and its gain were determined after the 12 weeks.

[2] = Anti-arteriosclerosis effect: lipid-stained area of aorta in rabbits on high fat diet; type: in vivo, Japanese white rabbits; conditions: rabbit aorta, lipid stain, high fat diet 100 g/day, 12 weeks
Source text: Japanese white rabbits (Kitayama Labes., Co Ltd.) aged 9 weeks were used in the test. Blood was collected from the auricular artery of animals acclimated to feeding with high fat diet (RC-4 containing 0.3% cholesterol and 3% peanut oil, Oriental Yeast, Co., Ltd.), and then the animals were grouped into 4 groups containing 12 animals each so that there might be no intergroup difference with respect to body weight and parameters in plasma (neutral fat value, total cholesterol value, HDL cholesterol value). Compound (1) was added to the high fat diet so that the intake of Compound (1) might be 3, 10, and 30 mg/kg/100 g diet/day. The animals were allowed to take the diet restricted to 100 g diet/day for 12 weeks, lipid of the aorta was stained, and the stained region was defined as the arteriosclerotic region. The percentage of area of the arteriosclerotic region was calculated according to the equation below.

Solubility in water = type: physicochemical; conditions: general statement, no test described
[3] = Antidiabetic effect: plasma parameters in KKAy mice after 14 days of Compound (1) in diet; type: in vivo, mouse (male KKAy, genetically diabetic, insulin-resistant); conditions: blood on day 15; for Free fatty acid / Insulin / Neutral fat: plasma
Source text: Male KKAy mice (Clea Japan, Inc.) aged 7 weeks which are genetically diabetic (insulin-resistant) were used in the test. Blood was previously collected from the orbital venous plexus of animals acclimated to feeding with normal powdered diet (CRF-1, Oriental Yeast, Co., Ltd.), and then the animals were grouped into 5 groups containing 6 animals each so that there might be no intergroup difference with respect to plasma parameters (neutral fat value, free fatty acid value, insulin value, blood sugar level). Compound (1) was added to the powdered diet so that the concentration in the diet might be 1, 3, 10, and 30 mg/kg/day. The animals were allowed to take the diet ad libitum for 14 days, and blood was collected again from the orbital venous plexus in the morning on day 15 for the measurement of the above-mentioned plasma parameters.

[4] = Visceral fat-decreasing effect: fat weight by X ray CT in rats on high fat diet; type: in vivo; conditions: SD rats, 35% (w/w) high fat diet with 0.029% (w/w) Compound (1), 3 months
Source text: SD rats (Charles River Japan, Inc.) aged 8 weeks were used in the test. Animals acclimated to feeding with 35% (w/w) high fat diet for 1 week were grouped into 2 groups, i.e. a control group and a group treated with Compound (1), for the test. Animals in the control group received the 35% (w/w) high fat diet, and those in the Compound (1) group received the diet prepared by adding Compound (1) to 0.029% (w/w) of the 35% (w/w) high fat diet, for 3 months. Tap water was available ad libitum to the animals in the test.
Fat weight was determined 3 months later with an X ray CT scanner for laboratory animals (Aloka).

CCOC(=O)C(COC(=O)Cc1ccc(NC(=O)c2ccccc2-c2ccc(C(F)(F)F)cc2)c(C(=O)N(C)C)c1)(C(=O)OCC)c1ccccc1 [Compound (1), 2-(2-{3-dimethylcarbamoyl-4-[(4′-trifluoromethyl-biphenyl-2-carbonyl)amino]phenyl}acetoxymethyl)-2-phenylmalonic acid diethyl ester]
Body weight ([1]; 3 mg/kg/day): 3122.1 g | Body weight gain ([1]; 3 mg/kg/day): 1176.0 g | Body weight ([1]; 10 mg/kg/day): 2997.1 g | Body weight gain ([1]; 10 mg/kg/day): 1065.9 g | Body weight ([1]; 30 mg/kg/day): 2969.0 g | Body weight gain ([1]; 30 mg/kg/day): 1025.4 g | Percentage of area of arteriosclerotic region ([2]; 3 mg/kg/day): 28.4% | Percentage of area of arteriosclerotic region ([2]; 10 mg/kg/day): 7.7% | Percentage of area of arteriosclerotic region ([2]; 30 mg/kg/day): 0.15% | Solubility in water (Solubility in water): slightly soluble or insoluble in water | Blood sugar ([3]; 1 mg/kg/day in diet): 413 ± 34.9 mg/dL | Blood sugar ([3]; 3 mg/kg/day in diet): 516 ± 14.9 mg/dL | Blood sugar ([3]; 10 mg/kg/day in diet): 405 ± 36.8 mg/dL | Blood sugar ([3]; 30 mg/kg/day in diet): 331 ± 39.6 mg/dL | Free fatty acid ([3]; 1 mg/kg/day in diet): 353 ± 15.9 µEq/l | Insulin ([3]; 1 mg/kg/day in diet): 117 ± 14.0 ng/mL | Neutral fat ([3]; 1 mg/kg/day in diet): 676 ± 57.2 mg/dL | Free fatty acid ([3]; 3 mg/kg/day in diet): 293 ± 11.7 µEq/l | Insulin ([3]; 3 mg/kg/day in diet): 103 ± 10.5 ng/mL | Neutral fat ([3]; 3 mg/kg/day in diet): 716 ± 79.9 mg/dL | Free fatty acid ([3]; 10 mg/kg/day in diet): 235 ± 24.9 µEq/l | Insulin ([3]; 10 mg/kg/day in diet): 102 ± 11.3 ng/mL | Neutral fat ([3]; 10 mg/kg/day in diet): 545 ± 53.1 mg/dL | Free fatty acid ([3]; 30 mg/kg/day in diet): 171 ± 17.4 µEq/l | Insulin ([3]; 30 mg/kg/day in diet): 67 ± 10.4 ng/mL | Neutral fat ([3]; 30 mg/kg/day in diet): 298 ± 21.0 mg/dL | Muscle weight [4]: 204.4 g | Subcutaneous fat weight [4]: 14.9 g | Visceral fat weight [4]: 28.8 g

— patent publication US20060030623A1, “Agent for the treatment or prevention of diabetes, obesity or arteriosclerosis” (priority 2004, published 2006)
